# Experimental data: PMC12257540, “From Inhibitors to PET: SAR-Based Development of [^18F]SK60 for mIDH1 Imaging” (Journal of Medicinal Chemistry, 2025)
# Several values for one entry are separate records, joined by “and”; a condition that tells them apart may be missing. Equal entries are not always repeated.
# Assays:
# [1] = In vivo metabolism in naïve mice (radio-RP-HPLC and radio-MLC of plasma and brain); parameters: species or system CD-1 mice; details: 30 min p.i., i.v.; for parent radioligand fraction in brain: mouse brain; for parent radioligand fraction in plasma: mouse plasma
# Description: The metabolic stability of [ ^ 18 F]-SK60 was investigated ex vivo by radio-RP-HPLC and radio-micellar-HPLC (MLC) analyses of plasma and brain samples obtained from naïve female mice (n = 3) at 30 min post intravenous injection (p.i.). For the preparation of the RP-HPLC samples, two solvent systems MeCN/water (9/1; v/v) and MeOH/water (9/1; v/v) were tested for activity extraction from the plasma and brain samples. With both systems, recoveries of higher than 95% could be obtained. […] For the radio-MLC analyses, the brain and plasma samples were treated with sodium dodecyl sulfate and directly injected into the MLC system. Despite the slightly different elution profile compared to the RP-HPLC system caused by different separation mechanisms, the quantification of the peaks gave similar results (Figure B). Altogether, the results obtained with these two complementary systems indicate a high metabolic stability of [ ^ 18 F]-SK60 in mice without the formation of brain-penetrable radiometabolites.
# [ ^ 18 F]-SK60 (24.3 ± 2.89 MBq) diluted in 200 μL of sterile isotonic saline was injected into the tail vein of restrained, awake mice. Thirty min after injection, animals were anesthetized with isoflurane, blood was collected from the retro-orbital plexus with a heparinized glass Pasteur pipet, and the anesthetized animal was sacrificed by cervical dislocation. Blood plasma was obtained by centrifugation of the whole blood (8000 rpm, 4 °C, 2 min). The brain was isolated, rapidly rinsed with 1 mL isotonic saline to remove superficial blood, and finally homogenized in 1 mL deionized water in an ice–water bath (Potter B. Braun, 1000 rpm, 10 strokes).
# Protein precipitation and extraction were performed by using an ice-cold MeCN/water (9:1 v/v) or MeOH/water (9:1 v/v) mixture at a 4:1 (v/v) solvent-to-sample ratio for plasma or brain homogenates. Samples were vortexed for 3 min, equilibrated on ice for 5 min, and centrifuged at 10,000 rpm for 5 min. […] Combined supernatants were concentrated under nitrogen at 75 °C to ∼100 μL and analyzed via radio-HPLC using a Reprosil-Pur 120 C18-AQ column with a gradient MeCN/20 mM NH4OAcaq (pH 6.8) elution (gradient: eluent A 10% MeCN/20 mM NH4OAcaq.; eluent B 90% MeCN/20 mM NH4OAcaq.; 0–5 min 100% A, 5–17 min up to 100% B, 17–26 min 100% B, 26–27 min up to 100% A, 27–30 min 100% A). […]
# For the preparation of the MLC samples, mouse plasma (20–50 μL, 2–3 kBq) was dissolved in 200 μL of 200 mM aqueous sodium dodecyl sulfate (SDS) and injected into the MLC system. […] The MLC system consisted of a JASCO PU-980 pump, an AS-2055Plus autoinjector with a 2 mL sample loop, and a UV-1575 detector coupled with a γ radioactivity HPLC detector (Gabi Star, raytest Isotopenmessgeräte GmbH; Straubenhardt; Germany). […]
# [2] = PET-based biodistribution in naïve mice
# Description: (§1) For the time of the experiments, female CD-1 mice (n = 4; 8–10 weeks; 37–40 g) were kept in a dedicated climatic chamber with free access to water and food under a 12:12 h dark: light cycle at a constant temperature (24 °C). The animals were anesthetized (Anaesthesia Unit U-410, agntho’s, Lidingö, Sweden) with isoflurane (2.0%, 300 mL/min) delivered in a 20% oxygen/80% air mixture (Gas Blender 100 Series, MCQ instruments, Rome, Italy) and their body temperature maintained at 37 °C with a thermal bed system. […] Each PET image was corrected for random coincidences, dead time, scatter, and attenuation (AC) based on a whole body (WB) MR scan. The reconstruction parameters for the list mode data were 3D-ordered subset expectation maximization (OSEM), 4 iterations, 6 subsets, energy window: 400–600 keV, coincidence mode: 1–5, ring difference: 81. The PET data were collected by a continuous WB scan during the entire investigation. […] The brain region was identified using the mouse brain atlas template Ma-Benveniste-Mirrione-FDG. The activity data are expressed as the SUVmean of the overall ROI.
# [3] = target: P-gp efflux transporter (Mus musculus, UniProt P21447); test: Efflux transporter P-gp substrate study (PET, cyclosporine A pretreatment); details: cyclosporine A 50 mg/kg i.v. 30 min before radioligand
# P-gp efflux transporter, sequence (P21447 whole entry): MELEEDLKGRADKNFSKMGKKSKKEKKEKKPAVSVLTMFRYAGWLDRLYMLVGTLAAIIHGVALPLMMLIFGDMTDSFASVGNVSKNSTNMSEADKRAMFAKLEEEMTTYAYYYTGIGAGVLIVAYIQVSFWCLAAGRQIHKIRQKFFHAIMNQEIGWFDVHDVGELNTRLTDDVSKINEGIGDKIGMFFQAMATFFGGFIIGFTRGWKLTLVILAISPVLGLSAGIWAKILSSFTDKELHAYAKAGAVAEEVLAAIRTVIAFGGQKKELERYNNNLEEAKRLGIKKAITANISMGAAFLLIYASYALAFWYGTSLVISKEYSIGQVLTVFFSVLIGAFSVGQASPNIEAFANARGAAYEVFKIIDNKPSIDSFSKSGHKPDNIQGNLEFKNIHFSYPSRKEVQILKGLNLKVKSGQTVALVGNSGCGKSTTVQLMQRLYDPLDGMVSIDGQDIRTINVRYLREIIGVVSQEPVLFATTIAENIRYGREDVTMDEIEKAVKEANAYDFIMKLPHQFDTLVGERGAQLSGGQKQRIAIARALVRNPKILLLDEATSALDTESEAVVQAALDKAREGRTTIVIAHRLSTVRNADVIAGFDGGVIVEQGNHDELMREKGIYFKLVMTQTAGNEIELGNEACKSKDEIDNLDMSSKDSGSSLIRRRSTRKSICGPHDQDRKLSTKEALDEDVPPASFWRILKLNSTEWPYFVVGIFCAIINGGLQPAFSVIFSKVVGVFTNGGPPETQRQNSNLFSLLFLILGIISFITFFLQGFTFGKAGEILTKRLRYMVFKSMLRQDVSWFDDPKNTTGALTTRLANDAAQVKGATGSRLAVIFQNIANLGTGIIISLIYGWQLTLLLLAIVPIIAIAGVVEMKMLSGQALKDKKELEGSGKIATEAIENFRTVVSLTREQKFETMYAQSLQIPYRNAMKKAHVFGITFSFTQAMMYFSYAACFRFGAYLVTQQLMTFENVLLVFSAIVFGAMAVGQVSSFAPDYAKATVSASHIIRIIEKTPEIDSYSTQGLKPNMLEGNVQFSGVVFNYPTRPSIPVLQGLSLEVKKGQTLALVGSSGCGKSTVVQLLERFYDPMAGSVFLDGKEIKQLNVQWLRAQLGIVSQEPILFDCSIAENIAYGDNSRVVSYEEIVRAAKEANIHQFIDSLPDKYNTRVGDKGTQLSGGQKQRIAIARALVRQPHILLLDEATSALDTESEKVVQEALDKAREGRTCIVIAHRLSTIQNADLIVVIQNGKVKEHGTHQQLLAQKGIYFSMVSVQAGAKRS
# Description: To investigate the role of P-gp, mice were treated with cyclosporine A, an inhibitor of the P-gp efflux transporter.
# as §1
smiles,measurement,setting,value
Cc1cccc(NC(=O)c2nn(Cc3ccc([18F])cc3)c3c2CN(C(=O)c2ccc[nH]2)CC3(C)C)c1 [[18F]SK60],parent radioligand fraction in brain,[1]; MLC,100%
same,parent radioligand fraction in plasma,[1]; MLC,79%
same,parent radioligand fraction in brain,[1]; RP-HPLC,100%
same,parent radioligand fraction in plasma,[1]; RP-HPLC,80 ± 2% and 80%
same,accumulation in gallbladder,"[2]; PET, gallbladder, 30 min, n = 2",60 SUVmean
same,accumulation in liver,"[2]; PET, liver, 30 min, n = 2",1.6 SUVmean
same,brain uptake,"[2]; brain, 15 min p.i.",~0.3 SUVmean
same,increase of brain uptake after cyclosporine A compared to vehicle,[3],approximately 2.5 fold
